Results published in patent US20240207238A1, “INHIBITORS OF PROTEIN TYROSINE PHOSPHATASE, COMPOSITIONS, AND METHODS OF USE” (BRISTOL-MYERS SQUIBB COMPANY, priority 2022, published 2024).
Like-named read-outs stand apart in the source and are kept apart here.

Key:
PTPN2 [1] = target: T1, PTPN2 (Homo sapiens (Human), UniProt P17706); assay: Phosphatase activity assay using DiFMUP as substrate; format: biochemical; conditions: 0.15 nM PTPN2, read-out: PTPN2 BChem DIFMUP IC50
Procedure: The PTPN2 biochemical assay was performed as follows, a 5× stock solution of human PTPN2 (SRP5075, MilliporeSigma, Burlington, MA) and a 1.25× stock solution of DiFMUP (D6567, ThermoFisher Scientific, Waltham, MA), were prepared in 1× reaction buffer consisting of 50 mM HEPES, pH 7.4, 1 mM EDTA, 150 mM NaCl, 0.2 mg/mL BSA, 100 U/mL catalase and 10 mM DTT. […] of the DiFMUP substrate solution, for a final concentration of […] DiFMUP substrate, was added to a Corning 3574 384-well, white, non-binding surface microtiter plate containing […] of serially diluted test compounds prepared in DMSO. The reactions were started with the addition of […] of the enzyme solution, for a final PTPN2 concentration of 0.15 nM, and monitored every 105 seconds for 60 minutes at MEX 360/2EM 460 in a BioTek Synergy HTX plate reader (Agilent Technologies, Santa Clara, CA) at room temperature. The initial linear portions of the progress curves were fit according to a linear equation to yield the slopes and converted to % inhibition based on a value of 100% activity for the no inhibitor treated control. IC50 values of each compound were obtained by fitting the % inhibition-compound concentration curves using Dotmatics software (Dotmatics, Bishops Stortford, Hertfordshire, England).
(§1) For IC50 data, High DDT concentration and/or DiFMUP substrate assays were used; a skilled artisan may use either assay.

[2] = test system: phosphorylated STAT1 in B16-F10 cells; assay: Phospho-STAT1 (Tyr701) HTRF assay in B16-F10 cells; format: cell-based; conditions: 100 ng/mL mouse IFN-gamma, 1 hour, read-out: pSTAT1 HTRF B16 EC50
Procedure: B16-F10 cells (ATCC, Manassas, VA, #CRL-6475) were cultured in DMEM growth medium (ThermoFisher Scientific, Waltham, MA, #11995-040) supplemented with 10% heat-inactivated FBS (ThermoFisher Scientific, #16140-071) and 1% pen/strep (ThermoFisher Scientific, #15140-122). The cells were seeded into a white opaque 384-well tissue culture treated microplate (PerkinElmer, Waltham, MA, #6007688) at a density of 10,000 cells/well in 20 uL total volume and incubated overnight at 37 C and 5% CO2. 30 nL of compounds dissolved in DMSO were then transferred from a source plate into target wells with the Echo650 acoustic liquid handler (Beckman Coulter, Indianapolis, IN). Negative control wells received 30 nL of DMSO only (0.15% final concentration). Plates were returned to the incubator for 1 hour and then cells were treated with either 5 uL of growth medium or 5 uL of growth medium containing 500 ng/ml of recombinant mouse IFN-gamma protein (R&D Systems, Minneapolis, MN, #485-MI/CF, 100 ng/mL final concentration) using the Assist automated pipetting platform (INTEGRA Biosciences, Hudson, NH). Plates were incubated at 37 C for 1 hour and assayed for phosphorylated STAT1 protein levels with the phospho-STAT1 (Tyr701) HTRF kit (Cisbio, Bedford, MA, #63ADK026PEH) according to the manufacturer's instructions.

B16-F10 cells = assay: Cell proliferation assay (CellTiter-Glo) in B16-F10 cells with IFN-gamma; format: cell-based; conditions: 10 ng/ml mouse IFN-gamma, read-out: Prolif. 5d B16 GI50
PTPN2 [3] = target: T1, PTPN2; assay: PTPN2 biochemical assay, high DTT (PhosphoSens); conditions: high DTT concentration assay; read-out: PTPN2 BChem HIGHDTT IC50
Procedure: A PhosphoSens® kinase assay was performed as described by the vendor (AssayQuant Technologies, Marlborough, MA). Briefly, 1000× solutions of compounds were prepared in DMSO via serial dilution of the 10 mM DMSO stocks using 3-fold intervals in a 384-well reagent plate. 50 nL of the compound dilution series was then added to the corresponding wells of a 384-well assay plate. […] Finally, […] of 5×PTPN2 enzyme stock was added to each well of the assay plate for a final enzyme concentration of 150 pM. Reaction progress curves were collected by sampling fluorescence intensity at the excitation wavelength 360 nm (Quex360) and emission wavelength 480 nm (λem480) every 71 seconds for one hour using a Synergy H4 plate reader (BioTek Instruments/Agilent Technologies, Winooski, VT) at room temperature.
as §1

T1 sequence (P17706 whole entry): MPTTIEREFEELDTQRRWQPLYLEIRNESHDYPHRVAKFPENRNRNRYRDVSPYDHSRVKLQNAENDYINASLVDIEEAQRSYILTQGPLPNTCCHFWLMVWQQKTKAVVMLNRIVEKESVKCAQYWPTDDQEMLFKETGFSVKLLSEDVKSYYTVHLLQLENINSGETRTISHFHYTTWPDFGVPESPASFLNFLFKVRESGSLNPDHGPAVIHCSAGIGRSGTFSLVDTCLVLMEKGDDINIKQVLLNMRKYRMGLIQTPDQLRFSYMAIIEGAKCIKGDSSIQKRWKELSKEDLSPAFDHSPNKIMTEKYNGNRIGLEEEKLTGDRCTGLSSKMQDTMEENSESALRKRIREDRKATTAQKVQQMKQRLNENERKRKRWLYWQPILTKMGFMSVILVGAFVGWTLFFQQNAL

Question: “5-(4-(((4,6-dimethylpyridin-2-yl)amino)methyl)-6-fluoro-1H-indazol-7-yl)-1,2,5-thiadiazolidin-3-one 1,1-dioxide [Example 6]” was tested. Which IC50 (PTPN2 [1]) did it give?
Answer: The IC50 was 83 nM.

Question: And the EC50 [2]?
Answer: Its EC50 is 3690 nM.

Question: What about the GI50 (B16-F10 cells) of the same molecule?
Answer: The GI50 was 3260 nM.

Question: With “5-(6-fluoro-4-(((4-methoxy-5-methylpyridin-2-yl)amino)methyl)-1H-indazol-7-yl)-1,2,5-thiadiazolidin-3-one 1,1-dioxide [Example 7]” as the molecule, how does the IC50 (PTPN2 [1]) read?
Answer: Its IC50 is 199 nM.

Question: And the EC50 [2]?
Answer: Its EC50 is over 15000 nM.

Question: What about the GI50 (B16-F10 cells) of the same molecule?
Answer: Its GI50 is over 15000 nM.

Question: With “5-(6-fluoro-4-(((5-methoxypyridin-2-yl)amino)methyl)-1H-indazol-7-yl)-1,2,5-thiadiazolidin-3-one 1,1-dioxide [Example 2]” as the molecule, how does the IC50 (PTPN2 [3]) read?
Answer: The IC50 was 42 nM.

Question: And the IC50 (PTPN2 [1])?
Answer: The IC50 was 24 nM.

Question: And the EC50 [2]?
Answer: The EC50 was 1880 nM.

Question: And the GI50 (B16-F10 cells)?
Answer: The GI50 was 880 nM.

Question: Which results are given for “5-[6-fluoro-4-[[(3-methyl-2-pyridyl) amino] methyl]-1H-indazol-7-yl]-1,1-dioxo-1,2,5-thiadiazolidin-3-one [Example 10]”?
Answer: IC50 (PTPN2 [1]): 16 nM; EC50 [2]: 14000 nM; GI50 (B16-F10 cells): 3970 nM

Question: For “5-[6-fluoro-4-[[(4-methoxy-2-pyridyl)amino]methyl]-1H-indazol-7-yl]-1,1-dioxo-1,2,5-thiadiazolidin-3-one [Example 3]”, which IC50 (PTPN2 [3]) is on record?
Answer: The IC50 was 6 nM.

Question: And the IC50 (PTPN2 [1])?
Answer: Its IC50 is 9 nM.

Question: What about the EC50 [2] of the same molecule?
Answer: The EC50 was 764 nM.

Question: What about the GI50 (B16-F10 cells) of the same molecule?
Answer: The GI50 was 350 nM.

Question: With “5-[6-fluoro-4-[[(4-methyl-2-pyridyl)amino]methyl]-1H-indazol-7-yl]-1,1-dioxo-1,2,5-thiadiazolidin-3-one [Example 5]” as the molecule, how does the IC50 (PTPN2 [3]) read?
Answer: The IC50 was 5 nM.

Question: And the IC50 (PTPN2 [1])?
Answer: Its IC50 is 8 nM.

Question: What about the EC50 [2] of the same molecule?
Answer: The EC50 was 440 nM.

Question: What about the GI50 (B16-F10 cells) of the same molecule?
Answer: The GI50 was 166 nM.

Question: How did the IC50 (PTPN2 [3]) turn out when “5-[6-fluoro-4-[[(6-methoxy-2-pyridyl)amino]methyl]-1H-indazol-7-yl]-1,1-dioxo-1,2,5-thiadiazolidin-3-one [Example 1]” was run?
Answer: The IC50 was 5 nM.

Question: And the IC50 (PTPN2 [1])?
Answer: Its IC50 is 2 nM.

Question: And the EC50 [2]?
Answer: The EC50 was 287 nM.

Question: What about the GI50 (B16-F10 cells) of the same molecule?
Answer: Its GI50 is 160 nM.

Question: How did the IC50 (PTPN2 [3]) turn out when O=C1CN(c2c(F)cc(CNc3cc(C4CC4)ccn3)c3cn[nH]c23)S(=O)(=O)N1 [Example 4, 5-[4-[[(4-cyclopropyl-2-pyridyl)amino]methyl]-6-fluoro-1H-indazol-7-yl]-1,1-dioxo-1,2,5-thiadiazolidin-3-one] was run?
Answer: Its IC50 is 1 nM.

Question: What about the IC50 (PTPN2 [1]) of the same molecule?
Answer: Its IC50 is 2 nM.

Question: What about the EC50 [2] of the same molecule?
Answer: Its EC50 is 3120 nM.

Question: And the GI50 (B16-F10 cells; 120 h)?
Answer: Its GI50 is 2690 nM.

Question: For Cc1cc(NCc2cc(F)c(N3CC(=O)NS3(=O)=O)c3[nH]ncc23)ncc1C#N [Example 8, 6-[[6-fluoro-7-(1,1,4-trioxo-1,2,5-thiadiazolidin-2-yl)-1H-indazol-4-yl]methylamino]-4-methyl-pyridine-3-carbonitrile], which IC50 (PTPN2 [1]) is on record?
Answer: The IC50 was 67 nM.

Question: What about the EC50 [2] of the same molecule?
Answer: The EC50 was 9210 nM.

Question: What about the GI50 (B16-F10 cells; 120 h) of the same molecule?
Answer: Its GI50 is over 15000 nM.

Question: For COc1cc(C)nc(NCc2cc(F)c(N3CC(=O)NS3(=O)=O)c3[nH]ncc23)c1 [Example 9, 5-[6-fluoro-4-[[(4-methoxy-6-methyl-2-pyridyl)amino]methyl]-1H-indazol-7-yl]-1,1-dioxo-1,2,5-thiadiazolidin-3-one], which IC50 (PTPN2 [1]) is on record?
Answer: The IC50 was 1 nM.

Question: What about the EC50 [2] of the same molecule?
Answer: The EC50 was 91 nM.

Question: And the GI50 (B16-F10 cells; 120 h)?
Answer: The GI50 was 20 nM.
